Holding throughout (assay type): biochemical
For experiment [1], the target named is T1, recombinant human 17β-HSD2 (Homo sapiens, UniProt P37059).
T1 construct: made in house; host or cells: Sd9 (Sf9) insect cells, baculovirus (Bac to Bac Expression System)
T1 sequence (P37059 1-387): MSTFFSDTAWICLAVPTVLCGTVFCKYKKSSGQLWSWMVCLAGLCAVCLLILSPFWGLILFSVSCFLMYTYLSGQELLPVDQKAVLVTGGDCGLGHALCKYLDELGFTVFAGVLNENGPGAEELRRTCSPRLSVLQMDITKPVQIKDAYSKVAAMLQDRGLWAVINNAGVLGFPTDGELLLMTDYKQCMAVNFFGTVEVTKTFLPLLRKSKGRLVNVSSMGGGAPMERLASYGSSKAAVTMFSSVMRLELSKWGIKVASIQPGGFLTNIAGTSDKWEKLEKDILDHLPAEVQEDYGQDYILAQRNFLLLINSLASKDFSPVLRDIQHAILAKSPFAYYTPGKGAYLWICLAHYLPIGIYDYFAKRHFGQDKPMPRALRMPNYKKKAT
Kind of experiment: Inhibition of recombinant human 17β-HSD2 (estradiol to estrone conversion, HPLC/radioactivity). The note with it: compound 1 μM; 50 nM estradiol, 1 mM NADH, 30 min RT. How it is done:
17β-HSD2 production and isolation: Similarly to 173-HSD1 the Recombinant baculovirus was generated by the “Bac to Bac Expression System” (Invitrogen). Recombinant bacmid was transfected to Sd9 insect cells using “Cellfectin Reagent” (Invitrogen). 60 h later cells were harvested and supernatant were fractionated by the following protocol: • cells were dissolved into 40 ml of A-buffer (40 mM TRIS, pH8.0, 20% glycerol, 20 μM NAD, 0.4 mM PMSF, 150 mM NaCl, 0.5% dodecyl-β-maltoside+protease inhibitor cocktail) • cells were sonicated • lysate was incubated on ice for 15 min • lysate was centrifuged 5000 rpm 15 min, +4° C. • centrifugation of the supernatant 180 000 g 30 min, +4° C. • pellet was dissolved into 8 ml of A-buffer • not resuspended material was removed by centrifugation 5000 rpm 15 min, +4° C. • the clear supernatant was divided into 100 μl aliquots and were stored frozen until determination of enzymatic activity.
The amount of 173-HSD2 was analysed by immunoblotting and total protein concentration of each extract batch was determined.
Assay—Inhibition of recombinant human 17β-HSD2: Recombinant protein (4 μg/ml) was incubated in 20 mM KH2PO4 pH 8.5 with 50 nM estradiol (including 800 000 cpm/ml of ^3H-estradiol) and 1 mM NADH for 30 min at RT, in the presence of the potential inhibitor at concentrations 1 μM or 0.1 μM. Inhibitor stock solutions were prepared in DMSO. Final concentration of DMSO was adjusted to 1% in all samples. The enzyme reaction was stopped by addition of 10% trichloroacetic acid (final concentration). Samples were centrifuged in a microtiter plate at 4000 rpm for 10 min. Supernatants were applied to reverse phase HPLC on a Waters Symmetry C18 column, equipped with a Waters Sentry Guard column. Isocratic HPLC runs were performed at RT at a flow rate of1 ml/min in acetonitrile:water 48:52 as running solvent. Radioactivity was monitored in the eluate by a Scintillation Analyzer. Total radioactivity for estrone and estradiol were determined in each sample and percent conversion of estradiol to estrone was calculated according to the following formula:
% conversion=100×{(cpm estrone in sample with inhibitor)/[(cpm estradiol in sample with inhibitor)+(cpm estrone in sample with inhibitor)]}/{[(cpm estrone in sample without inhibitor)/[(cpm estradiol in sample without inhibitor)+(cpm estrone in sample without inhibitor)]}.
(§1) Percent inhibition was calculated followingly: % inhibition=100−% conversion.

In experiment [2] the target is T2, recombinant human 17β-HSD1 (Homo sapiens, UniProt P14061).
T2 construct: made in house; host or cells: Sd9 (Sf9) insect cells, baculovirus (Bac to Bac Expression System)
T2 sequence (P14061 1-328): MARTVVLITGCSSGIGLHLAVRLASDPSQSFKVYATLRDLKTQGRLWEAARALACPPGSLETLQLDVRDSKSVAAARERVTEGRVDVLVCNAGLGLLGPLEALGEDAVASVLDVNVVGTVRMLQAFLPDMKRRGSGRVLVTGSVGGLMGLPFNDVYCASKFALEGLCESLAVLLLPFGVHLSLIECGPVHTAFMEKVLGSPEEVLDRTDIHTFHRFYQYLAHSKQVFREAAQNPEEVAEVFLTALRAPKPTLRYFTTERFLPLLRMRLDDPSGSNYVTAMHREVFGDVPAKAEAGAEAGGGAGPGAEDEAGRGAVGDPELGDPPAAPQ
Description: Inhibition of recombinant human 17β-HSD1 (estrone to estradiol conversion, HPLC/radioactivity). As to conditions: compound 100 nM; 30 nM estrone, 1 mM NADPH, 30 min RT. As for the experimental part:
17β-HSD1 production and isolation: Recombinant baculovirus was generated by the “Bac to Bac Expression System” (Invitrogen). Recombinant bacmid was transfected to Sd9 insect cells using “Cellfectin Reagent” (Invitrogen). 60 h later cells were harvested; the microsomal fraction was isolated as described by Puranen, T. J., Poutanen, M. H., Peltoketo, H. E., Vihko, P. T. and Vihko, R. K. (1994) Site-directed mutagenesis of the putative active site of human 17 β-hydroxysteroid dehydrogenase type 1. Biochem. J. 304: 289-293. Aliquots were stored frozen until determination of enzymatic activity.
Assay—Inhibition of recombinant human 17β-HSD1: Recombinant protein (1 μg/ml) was incubated in 20 mM KH2PO4 pH 7.4 with 30 nM estrone (including 800 000 cpm/ml of ^3H-estrone) and 1 mM NADPH for 30 min at RT, in the presence of the potential inhibitor at concentrations 1 μM or 0.1 μM. Inhibitor stock solutions were prepared in DMSO. Final concentration of DMSO was adjusted to 1% in all samples. The enzyme reaction was stopped by addition of 10% trichloroacetic acid (final concentration). Samples were centrifuged in a microtiter plate at 4000 rpm for 10 min. Supernatants were applied to reverse phase HPLC on a Waters Symmetry C18 column, equipped with a Waters Sentry Guard column. Isocratic HPLC runs were performed at RT at a flow rate of 1 ml/min in acetonitrile:water 48:52 as running solvent. Radioactivity was monitored in the eluate by a Scintillation Analyzer. Total radioactivity for estrone and estradiol were determined in each sample and percent conversion of estrone to estradiol was calculated according to the following formula:
% conversion=100×{(cpm estradiol in sample with inhibitor)/[(cpm estrone in sample with inhibitor)+(cpm estradiol in sample with inhibitor)]}/{[(cpm estradiol in sample without inhibitor)/[(cpm estrone in sample without inhibitor)+(cpm estradiol in sample without inhibitor)]}.
as §1

Experiment [3] deals with HSD1 enzyme that is expressed in rabbit placenta tissue. Kind of experiment: Inhibition of E1 to E2 conversion in rabbit placenta tissue homogenate. The note with it: compound 100 nM, 30 nM estrone, 1 mM β-NADPH, 30 min. As for the experimental part:
The assay is based on an enzymatic reaction where HSD1 enzyme that is expressed in rabbit placenta tissue converts its natural substance estrone (E1) to estradiol (E2) in the presence of a co-factor β-NADPH.
Homogenization of rabbit placenta tissue: Weight a piece of the frozen tissue into a Precellys ck28 bead tube. Add buffer solution (20 mM KH2PO4 with 1 mM EDTA, pH 7.4) in 1:2 ratio (e.g. 300 mg of tissue:600 μl reaction buffer solution). Insert the bead tubes to homogenizer and homogenize 2×30 s. 6000 rpm.
Centrifugated 5 min., 2600 rpm at +4° C. and collect supernatant. Aliquots of homogenate are stored in −80° C.
Assay—Inhibition of E1 to E2 conversion in rabbit placenta tissue: The reaction takes place in a buffer solution (20 mM KH2PO4 with 1 mM EDTA, pH 7,4), including appropriate amount of rabbit placenta homogenate, co-factor (1 mM β-NADPH), Substrate (30 nM estrone), labelled substrate as tracer (5 nM [^3H]-estrone), and the potential inhibitor at concentrations 1 μM or 0.1 μM. Inhibitor stock solutions were prepared in DMSO. Final concentration of DMSO was adjusted to 1% in all samples. During a 30-minute incubation part of the estrone is converted to estradiol. The reaction is stopped by lowering the pH to 1 with 10% trichloro acetic acid (TCA). The substrate and conversion products are analyzed by HPLC and a Scintillation counter analyzer. Total radioactivity for estrone and estradiol were determined in each sample and percent conversion of estrone to estradiol was calculated according to the following formula:
% conversion=100×{(cpm estradiol in sample with inhibitor)/[(cpm estrone in sample with inhibitor)+(cpm estradiol in sample with inhibitor)]}/{(cpm estradiol in sample without inhibitor)/[(cpm estrone in sample without inhibitor)+(cpm estradiol in sample without inhibitor)]}.
as §1

For orientation: inhibition means the relative decrease from the control value, in per cent. Consider `Cc1ccc(NC(=O)CC[C@@H]2c3c[nH]nc3[C@@]3(C)CCC4c5ccc(F)cc5CCC4C23)nn1` (stereo partly drawn) [Compound 111, 3-((8aS,12S)-4-fluoro-8a-methyl-1,2,6b,7,8,8a,10,12,12a,12b-decahydronaphtho[2′,1′:4,5]indeno[1,2-c]pyrazol-12-yl)-N-(6-methylpyridazin-3-yl)propanamide], for which the inhibition at 1 µM in experiment [1] worked out at 1%. The inhibition at 0.1 µM in experiment [2] stood at 48%. For the same compound, the “Rabbit placenta inhibition % @100 nM” value in experiment [3] is recorded as 55%.
`C[C@]12CCC3c4ccc(F)cc4CCC3C1[C@H](CCC(=O)Nc1cccnn1)c1c[nH]nc12` (stereo partly drawn) [Compound 114, 3-((8aS,12S)-4-fluoro-8a-methyl-1,2,6b,7,8,8a,10,12,12a,12b-decahydronaphtho[2′,1′:4,5]indeno[1,2-c]pyrazol-12-yl)-N-(pyridazin-3-yl)propanamide]: the inhibition at 1 µM in experiment [1] is -1%. Besides, the inhibition at 0.1 µM in experiment [2] came out at 53%. Also, the “Rabbit placenta inhibition % @100 nM” value in experiment [3] is recorded as 43%.
As for `C[C@]12CCC3c4ccc(F)cc4CCC3C1[C@H](CCC(=O)Nc1cnccn1)c1c[nH]nc12` (stereo partly drawn) [Compound 120, 3-((8aS,12S)-4-fluoro-8a-methyl-1,2,6b,7,8,8a,10,12,12a,12b-decahydronaphtho[2′,1′:4,5]indeno[1,2-c]pyrazol-12-yl)-N-(pyrazin-2-yl)propanamide], the inhibition at 1 µM in experiment [1] was found to be 4%. For the same compound, the inhibition at 0.1 µM in experiment [2] was 67%. Further, the “Rabbit placenta inhibition % @100 nM” value in experiment [3] stood at 34%.
Taken in the same sequence, the figures for `C[C@]12CCC3c4ccc(Cl)cc4CCC3C1[C@H](CCC(=O)Nc1cc(F)ccn1)c1c[nH]nc12` (stereo partly drawn) [Compound 129, 3-((8aS,12S)-4-chloro-8a-methyl-1,2,6b,7,8,8a,10,12,12a,12b-decahydronaphtho[2′1′:4,5]indeno[1,2-c]pyrazol-12-yl)-N-(4-fluoropyridin-2-yl)propanamide] were 8%, 84% and 28%.
As to `C[C@]12CCC3c4ccc(Cl)cc4CCC3C1[C@H](CCC(=O)Nc1cccc(F)n1)c1c[nH]nc12` (stereo partly drawn) [Compound 135, 3-((8aS,12S)-4-chloro-8a-methyl-1,2,6b,7,8,8a,10,12,12a,12b-decahydronaphtho[2,1′:4,5]indeno[1,2-c]pyrazol-12-yl)-N-(6-fluoropyridin-2-yl)propanamide], the inhibition at 1 µM in experiment [1] amounted to 2%. Besides, the inhibition at 0.1 µM in experiment [2] was determined as 86%. For the same compound, in experiment [3], the “Rabbit placenta inhibition % @100 nM” value was 31%.
The matching figures for `C[C@]12CCC3c4ccccc4CCC3C1[C@H](CCC(=O)NC1CCOCC1)c1c[nH]nc12` (stereo partly drawn) [Compound 153, 3-((8aS,12S)-8a-methyl-1,2,6b,7,8,8a,10,12,12a,12b-decahydronaphtho[2′,1′:4,5]indeno[1,2-c]pyrazol-12-yl)-N-(tetrahydro-2H-pyran-4-yl)propanamide]: 4%, 85% and 10%.
The matching figures for `CN(CC1CC1)C(=O)CC[C@@H]1c2c[nH]nc2[C@@]2(C)CCC3c4ccccc4CCC3C12` (stereo partly drawn) [Compound 174, N-(cyclopropylmethyl)-N-methyl-3-((8aS,12S)-8a-methyl-1,2,6b,7,8,8a,10,12,12a,12b-decahydronaphtho[2′,1′:4,5]indeno[1,2-c]pyrazol-12-yl)propanamide]: 10%, 88% and 14%.
On to `C[C@]12CCC3c4ccccc4CCC3C1[C@H](CCC(=O)N1CCC3(CCOCC3)C1)c1c[nH]nc12` (stereo partly drawn) [Compound 177, 3-((8aS,12S)-8a-methyl-1,2,6b,7,8,8a,10,12,12a,12b-decahydronaphtho[2′,1′:4,5]indeno[1,2-c]pyrazol-12-yl)-1-(8-oxa-2-azaspiro[4.5]decan-2-yl)propan-1-one], for which, in experiment [1], the inhibition at 1 µM was found to be 4%. Moreover, in experiment [2], the inhibition at 0.1 µM is 89%. Besides, the “Rabbit placenta inhibition % @100 nM” value in experiment [3] is recorded as 16%.
With `C[C@]12CCC3c4ccccc4CCC3C1[C@H](CCC(=O)N1Cc3ccccc3C1)c1c[nH]nc12` (stereo partly drawn) [Compound 180, 1-(isoindolin-2-yl)-3-((8aS,12S)-8a-methyl-1,2,6b,7,8,8a,10,12,12a,12b-decahydronaphtho[2′,1′:4,5]indeno[1,2-c]pyrazol-12-yl)propan-1-one], the inhibition at 1 µM in experiment [1] was 12%. In experiment [2], the inhibition at 0.1 µM is 92%. Moreover, the “Rabbit placenta inhibition % @100 nM” value in experiment [3] was 14%.
